Measurements: patent US8039514B2, “Sulfonamide compounds and use thereof” (Asahi Kasei Pharma Corporation, priority 2008, dated 2011)

T1: human calcium-sensing receptor (CaSR) (Homo sapiens, UniProt P41180)
T1 construct: expressed in transfected cells
T1 sequence (P41180 20-1078): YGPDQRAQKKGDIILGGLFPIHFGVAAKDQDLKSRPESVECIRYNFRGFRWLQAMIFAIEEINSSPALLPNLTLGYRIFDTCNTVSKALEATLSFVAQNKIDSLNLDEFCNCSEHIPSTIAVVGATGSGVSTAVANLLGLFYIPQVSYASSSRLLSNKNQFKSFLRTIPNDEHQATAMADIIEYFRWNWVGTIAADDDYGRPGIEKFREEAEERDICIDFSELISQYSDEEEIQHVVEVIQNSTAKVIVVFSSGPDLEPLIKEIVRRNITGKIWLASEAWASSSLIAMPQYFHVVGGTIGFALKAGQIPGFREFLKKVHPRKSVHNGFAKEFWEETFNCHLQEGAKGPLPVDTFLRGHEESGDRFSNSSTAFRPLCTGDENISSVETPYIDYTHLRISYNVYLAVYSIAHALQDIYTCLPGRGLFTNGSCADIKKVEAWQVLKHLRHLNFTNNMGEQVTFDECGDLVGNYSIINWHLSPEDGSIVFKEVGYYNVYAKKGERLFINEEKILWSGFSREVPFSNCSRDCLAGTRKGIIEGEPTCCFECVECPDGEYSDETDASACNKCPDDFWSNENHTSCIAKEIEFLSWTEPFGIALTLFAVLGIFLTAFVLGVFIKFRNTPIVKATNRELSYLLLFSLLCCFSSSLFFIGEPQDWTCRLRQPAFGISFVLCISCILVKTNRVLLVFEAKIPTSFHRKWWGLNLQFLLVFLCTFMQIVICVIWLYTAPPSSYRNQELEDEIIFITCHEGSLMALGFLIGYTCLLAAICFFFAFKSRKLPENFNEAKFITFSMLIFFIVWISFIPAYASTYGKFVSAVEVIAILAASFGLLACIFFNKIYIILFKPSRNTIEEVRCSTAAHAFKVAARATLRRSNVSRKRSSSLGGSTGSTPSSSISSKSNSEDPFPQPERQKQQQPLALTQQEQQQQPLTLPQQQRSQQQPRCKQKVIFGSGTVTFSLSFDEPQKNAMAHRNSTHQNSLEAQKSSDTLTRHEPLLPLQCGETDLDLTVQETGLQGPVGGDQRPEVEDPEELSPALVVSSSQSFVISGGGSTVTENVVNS


Experiments:
[1] = system: PTH concentration in blood; type: in vivo; details: for death or abnormality of the rat administered with the compounds: 0.1-100 mg/kg intravenous or oral; for PTH concentration in blood after 30 minutes / dose dependence of PTH concentration increase / PTH concentration in blood 5 minutes after the intravenous administration: rat, 0.1-100 mg/kg; for PTH concentration in blood 5 minutes after the intravenous administration: Rat Intact PTH ELISA, versus normal value
Procedure: Compounds of Exp. 3-49, Exp. 3-57, Exp. 3-93, Exp. 3-95, Exp. 3-102, Exp. 3-106, Exp. 8-5, Exp. 10-1 and Exp. 10-25 were chosen as a test compound. Each of them was either dissolved or suspended in physiological saline or distilled water containing 1-20% DMSO, 5% CremophorEL, 10-40% PEG300, etc. and administered intravenously (tail vein or femoral vein) or orally administered to a 7 week to 10 week old male SD-IGS rat (Nippon Charles-River) with dosage of 0.1-100 mg/kg. After that, blood sample was taken from subclavian vein over the time and serum was separated. Concentration of PTH in blood was measured using Rat Intact PTH ELISA Kit (manufactured by Immutopics) to evaluate an activity of increasing PTH concentration in blood. […] Therefore, the safety of these compounds was confirmed again.

[2] = target: T1, human calcium-sensing receptor (CaSR); assay: intracellular Ca assay, CaSR antagonist activity in HEK293/hCaSR cells; type: cell-based; details: Fura2-AM, inhibition of response to calcium chloride ligand solution, read-out: IC50 values according to the intracellular Ca assay (CaSR antagonist activity)
Method in brief: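 HEK293/hCaSR cells were loaded with Fura2-AM and pre-incubated with compound for 160 s at 37° C in HEPES buffer (pH 7.4, 0.8 mM CaCl2), then challenged with calcium ligand solution. Read-out was the peak 340/380 nm fluorescence ratio; inhibition is relative to no-compound (0%) and no-calcium-ligand (100%) controls.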

[3] = oral everyday for eight weeks, rat with removed ovary; cited from earlier work
[4] = system: PTH concentration in blood; details: single oral administration, rat; cited from earlier work
[5] = PTH 20 μg subcutaneous everyday; ALN 10 mg oral everyday; cited from earlier work
[6] = 20 μg subcutaneously everyday for 19 months in average; cited from earlier work

Molecule	death or abnormality of the rat administered with the compounds [1]	PTH concentration in blood after 30 minutes [1]	dose dependence of PTH concentration increase [1]	PTH concentration in blood 5 minutes after the intravenous administration [1]	IC50 [2]	further results
CN(C[C@H](O)CNC(C)(C)CC1Cc2ccccc2C1)S(=O)(=O)c1cccc(-c2cccc(C(=O)O)c2)c1 [Exp. 3-49, (R)-3′-(N-(3-(1-(2,3-dihydro-1H-inden-2-yl)-2-methylpropan-2-ylamino)-2-hydroxypropyl)-N-methylsulfamoyl)biphenyl-3-carboxylic acid]	no death or abnormality was found	returned to a normal value	dependent on the administration amount of the compound	increased at least twice the normal value	≤ 300 nM	
CN(C[C@H](O)CNC(C)(C)CC1Cc2ccccc2C1)S(=O)(=O)c1cccc(-c2ccc(CCC(=O)O)cc2)c1 [Exp. 3-57, (R)-3-(3′ (N-(3-(1-(2,3-dihydro-1H-inden-2-yl)-2-methylpropan-2-ylamino)-2-hydroxypropyl)-N-methylsulfamoyl)biphenyl-4-yl)propionic acid]	no death or abnormality was found	returned to a normal value	dependent on the administration amount of the compound	increased at least twice the normal value	300 to 1000 nM	
CN(C[C@H](O)CNC(C)(C)CC1Cc2ccccc2C1)S(=O)(=O)c1cc(-c2ccc(CCC(=O)O)cc2)cc(C(F)(F)F)c1 [Exp. 3-93, (R)-3-(3′-(N-(3-(1-(2,3-dihydro-1H-inden-2-yl)-2-methylpropan-2-ylamino)-2-hydroxypropyl)-N-methylsulfamoyl)-5′-(trifluoromethyl)biphenyl-4-yl)propionic acid]	no death or abnormality was found	returned to a normal value	dependent on the administration amount of the compound	increased at least twice the normal value	≤ 300 nM	
CN(C[C@H](O)CNC(C)(C)Cc1ccc(Cl)c(F)c1)S(=O)(=O)c1cc(-c2ccc(CCC(=O)O)cc2)cc(C(F)(F)F)c1 [Exp. 3-95, (R)-3-(3′-(N-(3-(1-(4-chloro-3-fluorophenyl)-2-methylpropan-2-ylamino)-2-hydroxypropyl)-N-methylsulfamoyl)-5′-(trifluoromethyl)biphenyl-4-yl)propionic acid]	no death or abnormality was found	returned to a normal value	dependent on the administration amount of the compound	increased at least twice the normal value		
CCc1cc(-c2ccc(CCC(=O)O)cc2)ccc1S(=O)(=O)N(C)C[C@H](O)CNC(C)(C)CC1Cc2ccccc2C1 [Exp. 3-102, (R)-3-(4′-(N-(3-(1-(2,3-dihydro-1H-inden-2-yl)-2-methylpropan-2-ylamino)-2-hydroxypropyl)-N-methylsulfamoyl)-3′-ethylbiphenyl-4-yl)propionic acid]	no death or abnormality was found	returned to a normal value	dependent on the administration amount of the compound	increased at least twice the normal value		
CN(C[C@H](O)CNC(C)(C)CC1Cc2ccccc2C1)S(=O)(=O)c1ccc(-c2ccc(CCC(=O)O)cc2)c(Cl)c1 [Exp. 3-106, (R)-3-(2′-chloro-4′-(N-(3-(1-(2,3-dihydro-1H-inden-2-yl)-2-methylpropan-2-ylamino)-2-hydroxypropyl)-N-methylsulfamoyl)biphenyl-4-yl)propionic acid]	no death or abnormality was found	returned to a normal value	dependent on the administration amount of the compound	increased at least twice the normal value	≤ 300 nM	
CN(C[C@H](O)CNC(C)(C)CCCc1ccccc1)S(=O)(=O)c1cc(CCC(=O)O)cc(C(F)(F)F)c1 [Exp. 8-5, (R)-3-(3-(N-(2-hydroxy-3-(2-methyl-5-phenylpentan-2-ylamino)propyl)-N-methylsulfamoyl)-5-(trifluoromethyl)phenyl)propionic acid]	no death or abnormality was found	returned to a normal value	dependent on the administration amount of the compound	increased at least twice the normal value	≤ 300 nM	
CN(C[C@H](O)CNC(C)(C)CC1Cc2ccccc2C1)S(=O)(=O)c1cc(CCC(=O)O)cc(C(F)(F)F)c1 [Exp. 10-1, (R)-3-(3-(N-(3-(1-(2,3-dihydro-1H-inden-2-yl)-2-methylpropan-2-ylamino)-2-hydroxypropyl)-N-methylsulfamoyl)-5-(trifluoromethyl)phenyl)propionic acid]	no death or abnormality was found	returned to a normal value	dependent on the administration amount of the compound	increased at least twice the normal value		
CN(C[C@H](O)CNC(C)(C)CC1Cc2ccccc2C1)S(=O)(=O)c1cc(CCCC(=O)O)cc(C(F)(F)F)c1 [Exp. 10-25, (R)-4-(3-(N-(3-(1-(2,3-dihydro-1H-inden-2-yl)-2-methylpropan-2-ylamino)-2-hydroxypropyl)-N-methylsulfamoyl)-5-(trifluoromethyl)phenyl)butanoic acid]	no death or abnormality was found	returned to a normal value	dependent on the administration amount of the compound	increased at least twice the normal value		
CC(C)(Cc1ccc2ccccc2c1)NC[C@@H](O)COc1cccc(Cl)c1C#N [NPS2143]						bone formation evaluated by bone morphometry [3]: increased; bone mineral density [3]: remained almost the same; PTH concentration in blood [4]: continuously increased
PTH: parathyroid hormone (PTH) preparation, a peptide preparation injected subcutaneously (peptide, UniProt P01270 32-115, looked up, Parathyroid hormone, parathyroid hormone (PTH) preparation, a peptide preparation injected subcutaneously) Parathyroid hormone: SVSEIQLMHNLGKHLNSMERVEWLRKKLQDVHNFVALGAPLAPRDAGSQRPRKKEDNVLVESHEKSLGEADKADVNVLTKAKSQ						increase of bone mineral density of lumbar spine 18 months after the administration [5]: 10.3%; bone mineral density increase in lumbar spine [6]: 9.7%; bone mineral density increase in neck of femur [6]: 2.8%; inhibition of frequency of occurrence of new vertebral body fracture [6]: 65%; inhibition of frequency of occurrence of non-vertebral body fracture [6]: 53%
